Measured values as given in US8609661B2, “Pyrimido-pyrrolo-quinoxalinedione inhibitors of cystic fibrosis transmembrane conductance regulator protein and uses therefor” (The Regents of the University of California, priority 2009, dated 2013).
Like-named read-outs stand apart in the source and are kept apart here.

Molecular target: T1, human wildtype CFTR (Homo sapiens, UniProt P13569)
T1 construct: expressed in transfected cells; host or cells: Fischer rat thyroid (FRT) cells
Assay: Fluorescence platereader assay of CFTR-mediated iodide influx (YFP quenching) in FRT cells
Assay type: cell-based
Conditions: for inhibition at 5 µM / inhibition at 25 µM: FRT; for IC50: apparent IC50 from concentration-inhibition data, fluorescence platereader assay
Procedure, shortened: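 Fischer rat thyroid cells co-expressing human wildtype CFTR and the YFP-H148Q/1152L halide sensor were seeded at 20,000 cells per well in 96-well black-walled plates and assayed 48 h later at confluence. After PBS washes and a 15 min incubation, CFTR was maximally activated with an agonist mixture. Fluorescence was recorded for 2 s before and 10 s after adding 160 μL iodide-substituted PBS, and iodide influx rates came from non-linear regression.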

[1] = Table 2, screening, 5 μM, read-out: % Inhibition at 5 μM
[2] = Table 2, screening, 25 μM, read-out: % Inhibition at 25 μM
[3] = read-out: % inhibition at 25/5 μM (5 μM value), Table 1, 5 μM compound
[4] = read-out: % inhibition at 25/5 μM (25 μM value), Table 1, 25 μM compound

T1 sequence (P13569 whole entry): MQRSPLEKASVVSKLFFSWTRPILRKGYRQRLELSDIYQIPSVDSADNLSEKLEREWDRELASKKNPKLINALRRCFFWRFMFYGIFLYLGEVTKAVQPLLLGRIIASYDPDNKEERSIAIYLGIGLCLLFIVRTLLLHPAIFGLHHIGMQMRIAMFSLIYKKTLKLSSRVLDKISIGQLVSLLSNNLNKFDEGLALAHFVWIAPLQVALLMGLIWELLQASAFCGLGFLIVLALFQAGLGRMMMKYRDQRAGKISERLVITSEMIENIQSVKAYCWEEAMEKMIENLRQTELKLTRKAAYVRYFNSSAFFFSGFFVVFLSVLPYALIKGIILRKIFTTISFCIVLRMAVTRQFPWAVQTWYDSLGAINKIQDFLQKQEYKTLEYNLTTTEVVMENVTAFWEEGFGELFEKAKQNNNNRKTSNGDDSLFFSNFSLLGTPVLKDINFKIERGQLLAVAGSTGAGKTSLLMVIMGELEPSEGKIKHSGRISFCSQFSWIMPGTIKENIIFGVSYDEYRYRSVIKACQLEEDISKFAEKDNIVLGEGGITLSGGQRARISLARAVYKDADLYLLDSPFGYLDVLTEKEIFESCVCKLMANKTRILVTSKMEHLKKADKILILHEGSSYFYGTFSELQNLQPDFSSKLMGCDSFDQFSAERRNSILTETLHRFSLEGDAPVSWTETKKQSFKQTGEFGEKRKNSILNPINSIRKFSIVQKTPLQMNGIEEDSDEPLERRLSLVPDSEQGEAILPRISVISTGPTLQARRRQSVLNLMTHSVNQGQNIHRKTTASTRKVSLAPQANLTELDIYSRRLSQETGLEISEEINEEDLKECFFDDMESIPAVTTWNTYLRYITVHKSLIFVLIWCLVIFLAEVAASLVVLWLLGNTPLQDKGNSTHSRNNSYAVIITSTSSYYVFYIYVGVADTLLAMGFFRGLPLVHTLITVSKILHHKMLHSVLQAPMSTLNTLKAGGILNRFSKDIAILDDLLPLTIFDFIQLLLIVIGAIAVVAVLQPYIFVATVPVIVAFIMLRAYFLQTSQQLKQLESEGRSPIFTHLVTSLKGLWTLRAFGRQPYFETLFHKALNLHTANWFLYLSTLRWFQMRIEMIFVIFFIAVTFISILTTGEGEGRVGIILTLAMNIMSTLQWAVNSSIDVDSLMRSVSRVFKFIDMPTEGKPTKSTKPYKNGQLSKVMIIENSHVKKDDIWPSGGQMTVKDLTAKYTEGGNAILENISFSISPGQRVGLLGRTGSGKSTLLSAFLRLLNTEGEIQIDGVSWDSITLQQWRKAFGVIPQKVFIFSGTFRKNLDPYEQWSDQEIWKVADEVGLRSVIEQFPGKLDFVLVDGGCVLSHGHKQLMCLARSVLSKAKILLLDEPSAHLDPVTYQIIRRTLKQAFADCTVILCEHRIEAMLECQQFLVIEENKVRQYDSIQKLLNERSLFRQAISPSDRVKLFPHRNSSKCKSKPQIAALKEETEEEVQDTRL

SMILES | inhibition at 5 µM [1] | inhibition at 25 µM [2] | inhibition at 5 µM [3] | inhibition at 25 µM [4] | IC50 | CFTR inhibition activity (structure-activity analysis)
COc1cc(C2Nc3ccccc3-n3c(-c4ccccc4)c4c(=O)n(C)c(=O)n(C)c4c32)ccc1O (centres unmarked) [PPQ-248, 7,9-Dimethyl-11-phenyl-6-(3-methoxy-4-hydroxyphenyl)-5,6-dihydro-pyrimido[4′,5′-3,4]pyrrolo[1,2-a]quinoxaline-8,10-(7H,9H)-dione] | 5% | 64% | – | – | – | –
COc1ccc(O)c(C2Nc3ccccc3-n3c(-c4ccccc4)c4c(=O)n(C)c(=O)n(C)c4c32)c1 (centres unmarked) | < 10% | 33% | – | – | – | –
Cc1cccc(-c2c3c(=O)n(C)c(=O)n(C)c3c3n2-c2ccccc2NC3c2cccc(F)c2)c1 (centres unmarked) [PPQ-219, 7,9-Dimethyl-11-(3-methylphenyl)-6-(3-fluorophenyl)-5,6-dihydro-pyrimido[4′,5′-3,4]pyrrolo[1,2-a]quinoxaline-8,10-(7H,9H)-dione] | 53% | 93% | 53% | 93% | 8000 nM | –
COc1cccc(C2Nc3ccccc3-n3c(-c4ccccc4F)c4c(=O)n(C)c(=O)n(C)c4c32)c1 (centres unmarked) [PPQ-211, 7,9-Dimethyl-11-(2-fluorophenyl)-6-(3-methoxyphenyl)-5,6-dihydro-pyrimido[4′,5′-3,4]pyrrolo[1,2-a]quinoxaline-8,10-(7H,9H)-dione] | 62% | > 95% | 62% | – | 2000 nM | –
Cc1ccc(C(=O)Nc2ccccc2-n2cc3c(c2-c2ccccc2)c(=O)n(C)c(=O)n3C)o1 [PPQ-102b, N-(2-(1,3-dimethyl-2,4-dioxo-5-phenyl-3,4-dihydro-1H-pyrrolo[3,4-d]pyrimidin-6(2H)-yl)phenyl)-5-methylfuran-2-carboxamide] | – | – | – | – | – | abolished CFTR inhibition activity
Cn1c(=O)c2c(-c3ccccc3)n3c(c2n(C)c1=O)C(c1cccc(F)c1F)Nc1ccccc1-3 (centres unmarked) [PPQ-201, 7,9-Dimethyl-11-phenyl-6-(2,3-difluorophenyl)-5,6-dihydro-pyrimido[4′,5′-3,4]pyrrolo[1,2-a]quinoxaline-8,10-(7H,9H)-dione] | 72% | 93% | 72% | 93% | 1200 nM | –
Cn1c(=O)c2c(-c3ccccc3)n3c(c2n(C)c1=O)C(c1cccc(O)c1O)Nc1ccccc1-3 (centres unmarked) | < 10% | 38% | – | – | – | –
Cc1cc2c(cc1C)-n1c(-c3ccccc3F)c3c(=O)n(C)c(=O)n(C)c3c1C(c1ccco1)N2 (centres unmarked) | 41% | 44% | – | – | – | –

The remaining lines, values ahead:

inhibition at 5 µM [1] | inhibition at 25 µM [2] | inhibition at 5 µM [3] | inhibition at 25 µM [4] | IC50 | CFTR inhibition activity (structure-activity analysis) | SMILES
51% | 87% | – | – | – | – | Cn1c(=O)c2c(-c3ccccc3F)n3c(c2n(C)c1=O)C(c1cccc(F)c1)Nc1ccccc1-3 (centres unmarked) [PPQ-230, 7,9-Dimethyl-11-(2-fluorophenyl)-6-(3-fluorophenyl)-5,6-dihydro-pyrimido[4′,5′-3,4]pyrrolo[1,2-a]quinoxaline-8,10-(7H,9H)-dione]
20% | 58% | – | – | – | – | Cc1ccc(C2Nc3ccccc3-n3c(-c4ccccc4F)c4c(=O)n(C)c(=O)n(C)c4c32)cc1 (centres unmarked) [PPQ-237, 7,9-Dimethyl-11-(2-fluorophenyl)-6-(4-methylphenyl)-5,6-dihydro-pyrimido[4′,5′-3,4]pyrrolo[1,2-a]quinoxaline-8,10-(7H,9H)-dione]
63% | > 95% | – | – | 800 nM | – | Cc1ccc(C2Nc3ccccc3-n3c(-c4ccccc4C)c4c(=O)n(C)c(=O)n(C)c4c32)o1 (centres unmarked) [PPQ-103, 7,9-Dimethyl-11-(2-methylphenyl)-6-(5-methylfuran-2-yl)-5,6-dihydro-pyrimido[4′,5′-3,4]pyrrolo[1,2-a]quinoxaline-8,10-(7H,9H)-dione]
18% | 70% | – | – | – | – | Cc1ccccc1-c1c2c(=O)n(C)c(=O)n(C)c2c2n1-c1ccccc1NC2c1ccco1 (centres unmarked) [PPQ-108, 7,9-Dimethyl-11-(2-methylphenyl)-6-(furan-2-yl)-5,6-dihydro-pyrimido[4′,5′-3,4]pyrrolo[1,2-a]quinoxaline-8,10-(7H,9H)-dione]
